Source: ChEMBL document CHEMBL1146181, “7'-substituted benzothiazolothio- and pyridinothiazolothio-purines as potent heat shock protein 90 inhibitors” (J Med Chem, 2006)
≈ marks a conversion by molar mass, not a printed value.

Key:
MCF7 = experiment: Viability of MCF7 cells by MTS assay; format: functional, cell-based; conditions: Homo sapiens
Heat shock protein HSP90 [1] = biological target: T1, Heat shock protein HSP90 (Homo sapiens, UniProt P07900+P08238); experiment: Ability to degrade Her2 in MCF7 cells; format: functional, cell-based
[2] = Solubility in simulated gastric fluid at pH 2.0; format: physicochemical
[3] = Solubility in Balb/C mouse serum at pH 7.4; format: ADME, cell-free
[4] = Solubility in simulated intestinal fluid at pH 6.5; format: physicochemical
Heat shock protein HSP90 [5] = biological target: T1, Heat shock protein HSP90; conditions: mcf7
Description: Binding affinity to Hsp90 in MCF7 cell lysate

Mus musculus = experiment: AUC in Balb/C mouse at 100 mg/kg, po; format: ADME, organism-based, Plasma; parameters: dose 100 mg/kg, route oral; conditions: in vivo
[6] = Cmax in Balb/C mouse at 100 mg/kg, po; format: ADME, organism-based; parameters: dose 100 mg/kg, route oral; conditions: in vivo
NCI-N87 = experiment: Inhibition of N87 cell line xenografted in mouse at 200 mg/kg, po; format: functional, Homo sapiens; conditions: read-out: TGI

Row | SMILES | EC50 (MCF7) | IC50 (Heat shock protein HSP90 [1]) | other results
1 | CC(=O)OCCCn1c(Sc2nc3cncc(Cl)c3s2)nc2c(N)ncnc21 | 1000 nM | 170 nM | –
2 | CCCCn1c(Sc2nc3cncc(Br)c3s2)nc2c(N)ncnc21 | 4000 nM | 400 nM | –
3 | Nc1ncnc2c1nc(Sc1nc3cccc(Cl)c3s1)n2CCCO | 250 nM | 150 nM | –
4 | CCOP(=O)(CCn1c(Sc2nc3cncc(Cl)c3s2)nc2c(N)ncnc21)OCC | 250 nM | – | solubility [2]: 124 µg/mL (≈ 248 µM); solubility [3]: 14 µg/mL (≈ 28 µM); solubility [4]: 38.3 µg/mL (≈ 76.6 µM)
5 | Nc1ncnc2c1nc(Sc1nc3cccc(Cl)c3s1)n2CCO | 700 nM | 300 nM | –
6 | CCCCn1c(Sc2nc3cncc(Cl)c3s2)nc2c(N)ncnc21 | 1000 nM | 280 nM | –
7 | CCCCn1c(Sc2nc3cccc(C)c3s2)nc2c(N)ncnc21 | 1300 nM | 300 nM | –
8 | CCOP(=O)(CCn1c(Sc2nc3cncc(Br)c3s2)nc2c(N)ncnc21)OCC | 100 nM | – | –
9 | CCCCn1c(Sc2nc3ccc(Cl)cc3s2)nc2c(N)ncnc21 | 20000 nM | 7000 nM | –
10 | CCCCn1c(Sc2nc3cc(Cl)ccc3s2)nc2c(N)ncnc21 | 20000 nM | 20000 nM | –
11 | CC(C)(C)NCCCn1c(Sc2nc3cccc(Cl)c3s2)nc2c(N)ncnc21 | 200 nM | 150 nM | solubility [3]: 199 µg/mL (≈ 444 µM); solubility [4]: 138 µg/mL (≈ 307 µM)
12 | CC(C)NCCCn1c(Sc2nc3cccc(Cl)c3s2)nc2c(N)ncnc21 | 500 nM | 170 nM | –
13 | CC(C)(C)CNCCn1c(Sc2nc3cccc(Cl)c3s2)nc2c(N)ncnc21 | 30 nM | 35 nM | solubility [3]: 4.9 µg/mL (≈ 10.9 µM)
14 | CCCCn1c(Sc2nc3cccc(F)c3s2)nc2c(N)ncnc21 | 1000 nM | 200 nM | –
15 | CCn1c(Sc2nc3cccc(Cl)c3s2)nc2c(N)ncnc21 | 800 nM | 200 nM | –
16 | CCCCn1c(Sc2nc3cccc(Br)c3s2)nc2c(N)ncnc21 | 2000 nM | 330 nM | –
17 | CCCCn1c(Sc2nc3cccc(Cl)c3s2)nc2c(N)ncnc21 | 250 nM | 180 nM | –

Row | SMILES | EC50 (MCF7) | IC50 (Heat shock protein HSP90 [1]) | other results
18 | Nc1ncnc2c1nc(Sc1nc3cccc(Cl)c3s1)n2CCN1CCOCC1 | 300 nM | 250 nM | EC50 (Heat shock protein HSP90 [5]): 150 nM
19 | CCCCn1c(Sc2nc3c(Cl)cccc3s2)nc2c(N)ncnc21 | 20000 nM | 15000 nM | –
20 | Nc1ncnc2c1nc(Sc1nc3cccc(Cl)c3s1)n2CCCCO | 200 nM | 150 nM | –
21 | CCCCn1c(Sc2nc3ccccc3s2)nc2c(N)ncnc21 | 10000 nM | 5000 nM | –
22 | Nc1ncnc2c1nc(Sc1nc3cccc(Cl)c3s1)n2CCNC1CC1 | 300 nM | 110 nM | solubility [2]: 245 µg/mL (≈ 586 µM); solubility [3]: 59 µg/mL (≈ 141 µM); solubility [4]: 21 µg/mL (≈ 50.2 µM); EC50 (Heat shock protein HSP90 [5]): 130 nM; AUC (Mus musculus): 7310 ng·h/mL; Cmax [6]: 4510 ng/mL; inhibition in vivo at 200 mg/kg (NCI-N87): 56%
23 | CCCCn1c(Sc2nc3cccc(OC)c3s2)nc2c(N)ncnc21 | 230 nM | 190 nM | solubility [2]: 35 µg/mL (≈ 90.6 µM); solubility [3]: 18 µg/mL (≈ 46.6 µM); solubility [4]: 2 µg/mL (≈ 5.17 µM); EC50 (Heat shock protein HSP90 [5]): 200 nM
24 | CCCCn1c(Sc2nc3cccc(OCC)c3s2)nc2c(N)ncnc21 | 16000 nM | 100000 nM | –
25 | N#CCCCCn1c(Sc2nc3cccc(Cl)c3s2)nc2c(N)ncnc21 | 300 nM | 110 nM | solubility [2]: 58.7 µg/mL (≈ 141 µM); solubility [3]: 31.3 µg/mL (≈ 75.3 µM); solubility [4]: 4.4 µg/mL (≈ 10.6 µM); EC50 (Heat shock protein HSP90 [5]): 100 nM
26 | CC(=O)OCCCCn1c(Sc2nc3cccc(Cl)c3s2)nc2c(N)ncnc21 | 240 nM | 130 nM | solubility [2]: 46 µg/mL (≈ 102 µM); solubility [4]: 3 µg/mL (≈ 6.68 µM); EC50 (Heat shock protein HSP90 [5]): 140 nM
27 | CC(C)(C)NCCn1c(Sc2nc3cccc(Cl)c3s2)nc2c(N)ncnc21 | 300 nM | 140 nM | –
28 | CCCCn1c(Sc2nc3ccc(Cl)c(Cl)c3s2)nc2c(N)ncnc21 | 20000 nM | 25000 nM | –
29 | CC(=O)OCCn1c(Sc2nc3cccc(Cl)c3s2)nc2c(N)ncnc21 | 300 nM | 150 nM | –
30 | CCCCCn1c(Sc2nc3cccc(Cl)c3s2)nc2c(N)ncnc21 | 6000 nM | 700 nM | –
31 | CCCn1c(Sc2nc3cccc(Cl)c3s2)nc2c(N)ncnc21 | 850 nM | 250 nM | –
32 | CCOP(=O)(CCn1c(Sc2nc3cccc(Cl)c3s2)nc2c(N)ncnc21)OCC | – | – | solubility [2]: 98.5 µg/mL (≈ 197 µM)
33 | CC(=O)OCCCn1c(Sc2nc3cccc(Cl)c3s2)nc2c(N)ncnc21 | 200 nM | 90 nM | solubility [2]: 220 µg/mL (≈ 506 µM); solubility [3]: 9 µg/mL (≈ 20.7 µM); solubility [4]: 16 µg/mL (≈ 36.8 µM); EC50 (Heat shock protein HSP90 [5]): 160 nM; AUC (Mus musculus): 1040 ng·h/mL
